Measurements reported in patent US6333176A (Degussa Aktiengesellschaft, priority 1994, dated 2001).
Peptide text beside a SMILES is read from it.

Target: T1, peptide amidase from Xanthomonas maltophilia (Stenotrophomonas maltophilia, UniProt Q8RJN5)
T1 construct: wild type, not recombinant
T1 sequence (Q8RJN5 34-540): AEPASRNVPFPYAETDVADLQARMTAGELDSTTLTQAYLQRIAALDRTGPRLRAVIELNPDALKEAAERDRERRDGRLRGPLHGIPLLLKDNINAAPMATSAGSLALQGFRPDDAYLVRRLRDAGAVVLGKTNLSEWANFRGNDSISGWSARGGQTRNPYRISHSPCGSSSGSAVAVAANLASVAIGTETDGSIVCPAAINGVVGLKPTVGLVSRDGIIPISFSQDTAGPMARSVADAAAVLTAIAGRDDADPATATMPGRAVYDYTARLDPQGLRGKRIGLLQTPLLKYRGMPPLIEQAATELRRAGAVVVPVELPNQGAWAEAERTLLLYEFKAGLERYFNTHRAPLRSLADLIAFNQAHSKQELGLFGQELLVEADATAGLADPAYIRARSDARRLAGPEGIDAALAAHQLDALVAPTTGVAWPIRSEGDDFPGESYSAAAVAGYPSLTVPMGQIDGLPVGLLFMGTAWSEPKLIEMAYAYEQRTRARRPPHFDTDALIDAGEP
Assay: Substrate spectrum of peptide amidase, enzymatic determination of the released ammonia
Format: biochemical
Settings: substrate 10 mM, 18 mU peptide amidase per ml, 50 mM tris/HCl pH 7.5, 30° C., 3 hours
Method: (§1) 18 mU of peptide amidase (purification state after the gel filtration) per ml test batch was used for the substrate spectrum of peptide amidase from Xanthomonas maltophilia. The concentration of the tested substrates was 10 mM in the reaction batch. Unless otherwise indicated, L-amino acid derivatives were used. The incubation took place in 50 mM tris/HCl, pH 7.5 at 30° C. for 3 hours. The reaction was stopped by heating for 5 minutes at 95° C. The determination of activity took place using enzymatic determination of the released ammonia (Bergmeyer, U. (1985): Methods of Enzymatic Analysis, p. 459, VCH Verlagsgesellschaft, Weinheim).

Row | Molecule | Relative conversion (conversion of dipeptide amides, Table 4a) | Relative conversion (influence of protective group and adjacent amino acid, Table 4c) | Relative conversion (conversion of N-acetyl amino acid amides, Table 4b)
1 | CC(C)[C@H](N)C(=O)NCC(N)=O [Val-Gly-NH2] (H-Val-Gly-NH2) | 22% | – | –
2 | C[C@H](NC(=O)[C@@H](N)Cc1ccccc1)C(N)=O [Phe-Ala-NH2] | 203% | 203% | –
3 | CC(=O)NC(CC(C)(C)C)C(N)=O (racemic) [Ac-D,L-neopentylglycine amide, Nα -acetyl-DL-neopentylglycine Amide] | – | – | 131%
4 | NC(=O)[C@H](Cc1ccccc1)NC(=O)[C@@H]1CCCN1 [Pro-Phe-NH2] (H-Pro-Phe-NH2) | 158% | – | –
5 | CC(=O)N[C@@H](Cc1ccc(O)cc1)C(N)=O [Ac-Tyr-NH2] | – | 123% | 123%
6 | CC(=O)N1CCC[C@H]1C(N)=O [Ac-Pro-NH2] | – | – | 0%
7 | NC(=O)CNC(=O)[C@@H](N)Cc1ccccc1 [Phe-Gly-NH2] (H-Phe-Gly-NH2) | 51% | – | –
8 | CC(C)C[C@H](N)C(=O)NCC(N)=O [Leu-Gly-NH2] (H-Leu-Gly-NH2) | 54% | – | –
9 | C[C@H](NC(=O)OCc1ccccc1)C(N)=O [Z-Ala-NH2] | – | 62% | –
10 | NC(=O)[C@H](Cc1ccccc1)NC(=O)[C@@H](N)Cc1ccc(O)cc1 [Tyr-Phe-NH2] (H-Tyr-Phe-NH2) | 190% | – | –
11 | C[C@H](N)C(=O)NCC(N)=O [Ala-Gly-NH2] (H-Ala-Gly-NH2) | 39% | – | –
12 | CC(=O)N[C@H](C(N)=O)C(C)C [Ac-Val-NH2] | – | – | 1%
13 | CCOC(=O)NC(CCSC)C(N)=O (racemic) [N-Ethoxy-D,L-Met-NH2, Nα -ethoxycarbonyl-DL-methionine amide] | – | 124% | –
14 | C[C@H](N)C(=O)N[C@@H](CCC(N)=O)C(=O)O [Ala-Gln-OH] (H-Ala-Gln-OH) | 0% | – | –
15 | CC(=O)N[C@@H](CCC(=O)O)C(N)=O [Ac-Glu-NH2] | – | – | 162%
16 | C[C@H](N)C(=O)N[C@@H](CC(N)=O)C(=O)O [Ala-Asn-OH] (H-Ala-Asn-OH) | 0% | – | –
17 | CC[C@H](C)[C@H](NC(C)=O)C(N)=O [Ac-Ile-NH2] | – | – | 6%
18 | COC(=O)NC(CCSC)C(N)=O (racemic) [N-Methoxy-D,L-Met-NH2, Nα -methoxycarbonyl-DL-methionine Amide] | – | 109% | –
19 | CC(C)C[C@H](N)C(=O)N[C@@H](Cc1ccccc1)C(N)=O [Leu-Phe-NH2] (H-Leu-Phe-NH2) | 203% | – | –
20 | NCC(=O)N[C@@H](Cc1ccccc1)C(N)=O [Gly-Phe-NH2] (H-Gly-Phe-NH2) | 214% | – | –
21 | CC(=O)N[C@@H](CO)C(N)=O [Ac-Ser-NH2] | – | – | 58%
22 | N-acetyl-naphthylalanine amide [Ac-Nal-NH2] | – | – | 84%
23 | C[C@H](N)C(=O)N[C@@H](C)C(N)=O [Ala-Ala-NH2] (H-Ala-Ala-NH2) | 211% | 211% | –
24 | NC(=O)[C@H](Cc1ccccc1)NC(=O)[C@@H](N)CO [Ser-Phe-NH2] | 217% | – | –

Row | Molecule | Relative conversion (conversion of dipeptide amides, Table 4a) | Relative conversion (influence of protective group and adjacent amino acid, Table 4c) | Relative conversion (conversion of N-acetyl amino acid amides, Table 4b)
25 | C[C@H](N)C(=O)N[C@@H](Cc1ccccc1)C(N)=O [Ala-Phe-NH2] | 218% | – | –
26 | NCC(=O)N[C@@H](CC(N)=O)C(=O)O [Gly-Asn-OH] (H-Gly-Asn-OH) | 0% | – | –
27 | NC(=O)[C@H](Cc1ccc(O)cc1)NC(=O)c1ccccc1 [Bz-Tyr-NH2] | – | 173% | –
28 | CSCC[C@H](NC(=O)[C@@H](N)CCCNC(=N)N)C(N)=O [Arg-Met-NH2] (H-Arg-Met-NH2) | – | 125% | –
29 | CC(=O)N[C@@H](CS)C(N)=O | – | – | 82%
30 | CC(=O)N[C@@H](Cc1c[nH]cn1)C(N)=O [Ac-His-NH2] | – | – | 177%
31 | CC(=O)N[C@@H](Cc1ccccc1)C(N)=O [Ac-Phe-NH2] | – | – | 134%
32 | NCC(=O)N[C@@H](Cc1ccc(O)cc1)C(N)=O [Gly-Tyr-NH2] (H-Gly-Tyr-NH2) | 174% | 174% | –
33 | CC(=O)N[C@@H](CCCCN)C(N)=O [Ac-Lys-NH2] | – | – | 175%
34 | CC(=O)N[C@H](C(N)=O)c1ccccc1 [Ac-Phg-NH2, N-acetylphenylglycine amide] | – | – | 28%
35 | CC(=O)N[C@@H](C)C(N)=O [Ac-Ala-NH2] | – | – | 182%
36 | CSCCC(NC(N)=O)C(N)=O (racemic) [N-Carbamoyl-D,L-Met-NH2] | – | 77% | –
37 | NC(=O)[C@@H]1CCCN1C(=O)[C@@H](N)Cc1ccc(O)cc1 [Tyr-Pro-NH2] (H-Tyr-Pro-NH2) | 0% | – | –
38 | CC(=O)N[C@@H](Cc1c[nH]c2ccccc12)C(N)=O [Ac-Trp-NH2] | – | – | 157%
39 | NCC(=O)NCC(N)=O [Gly-Gly-NH2] | 8% | – | –
40 | CC(C)C[C@H](N)C(=O)N[C@@H](C)C(N)=O [Leu-Ala-NH2] (H-Leu-Ala-NH2) | 217% | 217% | –
41 | CC(=O)N[C@H](C(N)=O)[C@@H](C)O [Ac-Thr-NH2] | – | – | 21%
42 | CC(=O)N[C@@H](CCCNC(=N)N)C(N)=O [Ac-Arg-NH2] | – | – | 110%
43 | NC(=O)CNC(=O)[C@@H]1CCCN1 [Pro-Gly-NH2] (H-Pro-Gly-NH2) | 66% | – | –
44 | NC(=O)CNC(=O)[C@@H](N)Cc1ccc(O)cc1 [Tyr-Gly-NH2] | 54% | – | –
45 | C[C@@H](NC(=O)OCc1ccccc1)C(N)=O [Z-D-Ala-NH2] | – | 0% | –
46 | CC(C)[C@H](N)C(=O)N[C@@H](Cc1ccccc1)C(N)=O [Val-Phe-NH2] (H-Val-Phe-NH2) | 140% | – | –
47 | NC(=O)[C@H](Cc1ccccc1)NC(=O)[C@@H](N)Cc1cnc[nH]1 [His-Phe-NH2] (H-His-Phe-NH2) | 137% | – | –

Target: T1, peptide amidase from Xanthomonas maltophilia
Assay: Enzymatic conversion of unprotected amino acid amides, thin-layer chromatography
Format: biochemical
Settings: substrate 10 mM
Method: as §1
The following thin-layer chromatographic methods were used for the analysis of the substrates and products cited in table 4d. To this end 1 μl of the stopped reaction batch was applied.

Row | Molecule | Conversion (unprotected amino acid amides) | Conversion (unprotected amino acid amides, Table 4d)
48 | N=C(N)NCCC[C@H](N)C(N)=O [H-arg-NH2] | 0 | 0
49 | CC[C@H](C)[C@H](N)C(N)=O [H-Ile-NH2] | 0 | 0
50 | NC(=O)[C@@H](N)Cc1ccccc1 [H-Phe-NH2] | 0 | 0
51 | CC(C)C[C@H](N)C(N)=O [H-Leu-NH2] | 0 | 0
52 | C[C@H](N)C(N)=O [H-Ala-NH2] | 0 | 0
53 | C[C@@H](O)[C@H](N)C(N)=O [H-Thr-NH2] | 0 | 0
54 | C[C@@H](N)C(N)=O [H-D-Ala-NH2] | 0 | 0
55 | NC(=O)[C@@H](N)Cc1ccc(O)cc1 [H-Tyr-NH2] | 0 | 0
56 | NCCCC[C@H](N)C(N)=O [H-Lys-NH2] | 0 | 0
57 | CC(C)[C@H](N)C(N)=O [H-Val-NH2] | 0 | 0
58 | NC(=O)[C@@H](N)CO [H-Ser-NH2] | 0 | 0
59 | NC(=O)[C@@H](N)Cc1c[nH]c2ccccc12 [H-Trp-NH2] | 0 | 0
60 | CSCC[C@H](N)C(N)=O [H-Met-NH2] | 0 | 0
61 | CC(C)C[C@@H](N)C(N)=O [H-D-Leu-NH2] | 0 | 0
